# Reference: US20260000655A1, “PHARMACEUTICAL COMPOSITION FOR USE IN PREVENTION OR TREATMENT OF LIFESTYLE-RELATED DISEASE” (priority 2022, published 2026)
# Experiments:
# [1] = tested on: myotube cell model L6-GLUT4myc; assay: Cytotoxicity (MTT reagent); format: cell-based, rat; settings: HPH-15 1 μM, 10 μM or 50 μM, 24 hours
# Procedure: It was examined whether using HPH-15 as a drug caused any cytotoxicity.
# The myotube cell model L6-GLUT4myc, the liver cell model HepG2 cells, and the adipocyte model 3T3-L1 used in Example 1 were each seeded onto a 24-well plate (1×10^5 cells/well, […] of culture liquid) and cultured overnight. Then, a DMSO solution (1%) containing HPH-15 (final concentration: 1 μM, 10 μM or 50 μM) was added to the medium, and the cells were further cultured for 24 hours. As a control, only DMSO solution (1%) was added, and the cells were cultured for 24 hours in the same manner. Next, […] of MTT reagent (3-(4,5-dimethyl-2-thiazolyl)-2,5-diphenyl-2H-tetrazolium bromide: 1.1 mg/mL: Dojindo Laboratories) was added to each well, and the cells were further cultured for 4 hours. After collecting the precipitated crystals, the supernatant was removed and DMSO ([…]) was added to completely dissolve the crystals. Cytotoxicity was evaluated by measuring the absorbance (550 nm) of the solution and determining the number of viable cells.
# [2] = tested on: adenosine monophosphate-activated protein kinase (AMPK); assay: Activation of AMPK (p-AMPK/AMPK, Western blotting) in liver cell model HepG2; format: cell-based, human; settings: HPH-15 at 1/40th the concentration of metformin (2 mM), 24 hours
# Source text: The tissues involved in glucose uptake and glucose metabolism are mainly the muscle, the liver, and the fat. Thus, using a cell model of each tissue, the relationship between HPH-15 and activation of adenosine monophosphate-activated protein kinase (AMPK) was examined. Note that AMPK is known as a therapeutic target for diabetes. AMPK acts as an energy sensor, and when it detects a decrease in ATP serving as an intracellular energy source, it suppresses the synthesis of glucose, fats, and proteins and produces ATP. Exercise therapy for diabetes is based on this mechanism. Further, AMPK has been drawing attention as a factor that improves insulin resistance.
# As a muscle cell model to be used, rat myoblast cell line L6-GLUT4myc (myoblasts expressing myc-tagged GLUT4) was cultured in a minimal essential medium a-MEM (10% FBS) and differentiated into myotubes. Differentiation into myotubes was performed by culturing L6-GLUT4 cells in a-MEM (10% FBS) and then changing the medium to a-MEM (2% FBS), followed by culturing for 6 days. Human HepG2 cell line was used as a liver cell model. As an adipocyte model to be used, mouse 3T3-L1 preadipocyte cell line was differentiated into adipocytes. Differentiation into adipocytes was performed as follows. […]
# Next, bands of AMPK and p-AMPK were quantified using ImageJ to determine a ratio of activated AMPK relative to AMPK (p-AMPK/AMPK).
smiles,measurement,setting,value
CC(C)(C)SCCNC(=S)c1cccc(C(=S)NCCSC(C)(C)C)n1 [HPH-15],cytotoxicity (number of viable cells),[1],no cytotoxicity was confirmed
same,AMPK activation (p-AMPK/AMPK) compared to when metformin was used,[2],approximately 40%
